Experimental data reported in the NIST ThermoML archive (doi:10.1016/j.jct.2015.05.024).
Numbers after ± are expanded uncertainties.

Experiment: xn = mol fraction of the nth substance listed
Details: 100 kPa, Liquid; for mass density: Vibrating tube method; for speed of sound: Frequency=5 MHz, Pulse-echo method

OCCOCCOCCO [triethylene glycol] + O
Details | mass density [kg/m3] | speed of sound [m/s]
278.15 K, x1 = 0.0107 | 1013.31 ± 0.26 | –
278.15 K, x1 = 0.02047 | 1024.39 ± 0.23 | –
278.15 K, x1 = 0.03972 | 1043.4 ± 0.22 | –
278.15 K, x1 = 0.04979 | 1051.97 ± 0.19 | –
278.15 K, x1 = 0.06996 | 1066.64 ± 0.17 | –
278.15 K, x1 = 0.09424 | 1080.57 ± 0.15 | –
278.15 K, x1 = 0.1481 | 1100.99 ± 0.14 | –
278.15 K, x1 = 0.2006 | 1112.25 ± 0.14 | –
278.15 K, x1 = 0.2502 | 1118.67 ± 0.15 | –
278.15 K, x1 = 0.2988 | 1122.73 ± 0.15 | –
278.15 K, x1 = 0.3492 | 1125.61 ± 0.16 | –
278.15 K, x1 = 0.3925 | 1127.4 ± 0.17 | –
278.15 K, x1 = 0.4502 | 1129.18 ± 0.18 | –
278.15 K, x1 = 0.4877 | 1130.08 ± 0.18 | –
278.15 K, x1 = 0.5004 | 1130.35 ± 0.19 | –
278.15 K, x1 = 0.5739 | 1131.64 ± 0.2 | –
278.15 K, x1 = 0.58 | 1131.73 ± 0.2 | –
278.15 K, x1 = 0.6465 | 1132.58 ± 0.22 | –
278.15 K, x1 = 0.651 | 1132.63 ± 0.22 | –
278.15 K, x1 = 0.7008 | 1133.14 ± 0.23 | –
278.15 K, x1 = 0.7471 | 1133.54 ± 0.24 | –
278.15 K, x1 = 0.7677 | 1133.7 ± 0.25 | –
278.15 K, x1 = 0.82 | 1134.08 ± 0.27 | –
278.15 K, x1 = 0.8623 | 1134.35 ± 0.28 | –
278.15 K, x1 = 0.8792 | 1134.45 ± 0.29 | –
278.15 K, x1 = 0.8975 | 1134.56 ± 0.3 | –
278.15 K, x1 = 0.9203 | 1134.69 ± 0.31 | –
278.15 K, x1 = 0.9514 | 1134.86 ± 0.32 | –
278.15 K, x1 = 0.9692 | 1134.96 ± 0.33 | –
278.15 K, x1 = 1 | 1135.14 ± 0.34 | –
283.15 K, x1 = 0.0107 | 1012.65 ± 0.26 | –
283.15 K, x1 = 0.02047 | 1023.4 ± 0.23 | –
283.15 K, x1 = 0.03972 | 1041.83 ± 0.22 | –
283.15 K, x1 = 0.04979 | 1050.13 ± 0.19 | –
283.15 K, x1 = 0.06996 | 1064.35 ± 0.17 | –
283.15 K, x1 = 0.09424 | 1077.85 ± 0.15 | –
283.15 K, x1 = 0.1481 | 1097.71 ± 0.14 | –
283.15 K, x1 = 0.2006 | 1108.7 ± 0.14 | –
283.15 K, x1 = 0.2502 | 1115 ± 0.15 | –
283.15 K, x1 = 0.2988 | 1119.01 ± 0.15 | –
283.15 K, x1 = 0.3492 | 1121.86 ± 0.16 | –
283.15 K, x1 = 0.3925 | 1123.64 ± 0.17 | –
283.15 K, x1 = 0.4502 | 1125.41 ± 0.18 | –
283.15 K, x1 = 0.4877 | 1126.3 ± 0.18 | –
283.15 K, x1 = 0.5004 | 1126.57 ± 0.18 | –
283.15 K, x1 = 0.5739 | 1127.85 ± 0.2 | –
283.15 K, x1 = 0.58 | 1127.94 ± 0.2 | –
283.15 K, x1 = 0.6465 | 1128.79 ± 0.22 | –
283.15 K, x1 = 0.651 | 1128.84 ± 0.22 | –
283.15 K, x1 = 0.7008 | 1129.34 ± 0.23 | –
283.15 K, x1 = 0.7471 | 1129.73 ± 0.24 | –
283.15 K, x1 = 0.7677 | 1129.89 ± 0.25 | –
283.15 K, x1 = 0.82 | 1130.26 ± 0.27 | –
283.15 K, x1 = 0.8623 | 1130.52 ± 0.28 | –
283.15 K, x1 = 0.8792 | 1130.62 ± 0.29 | –
283.15 K, x1 = 0.8975 | 1130.73 ± 0.29 | –
283.15 K, x1 = 0.9203 | 1130.86 ± 0.3 | –
283.15 K, x1 = 0.9514 | 1131.03 ± 0.32 | –
283.15 K, x1 = 0.9692 | 1131.12 ± 0.32 | –
283.15 K, x1 = 1 | 1131.29 ± 0.34 | –
288.15 K, x1 = 0.000601 | – | 1469.7 ± 1.4
288.15 K, x1 = 0.001928 | – | 1476.6 ± 1.4
288.15 K, x1 = 0.00461 | – | 1490.1 ± 1.4
288.15 K, x1 = 0.008532 | – | 1508.9 ± 1.4
288.15 K, x1 = 0.0107 | 1011.72 ± 0.25 | –
288.15 K, x1 = 0.01366 | – | 1532 ± 1.3
288.15 K, x1 = 0.01989 | – | 1557.7 ± 1.3
288.15 K, x1 = 0.02047 | 1022.17 ± 0.22 | –
288.15 K, x1 = 0.02548 | – | 1578.7 ± 1.2
288.15 K, x1 = 0.03449 | – | 1609.1 ± 1.2
288.15 K, x1 = 0.03972 | 1040.07 ± 0.21 | –
288.15 K, x1 = 0.04517 | – | 1639.9 ± 1.2
288.15 K, x1 = 0.04979 | 1048.13 ± 0.18 | –
288.15 K, x1 = 0.05131 | – | 1655.2 ± 1.2
288.15 K, x1 = 0.05713 | – | 1668.3 ± 1.1
288.15 K, x1 = 0.06261 | – | 1679.5 ± 1.1
288.15 K, x1 = 0.0692 | – | 1691.5 ± 1.1
288.15 K, x1 = 0.06996 | 1061.93 ± 0.17 | –
288.15 K, x1 = 0.07424 | – | 1699.8 ± 1.1
288.15 K, x1 = 0.08016 | – | 1708.5 ± 1.1
288.15 K, x1 = 0.08433 | – | 1714.1 ± 1.1
288.15 K, x1 = 0.08832 | – | 1719 ± 1.1
288.15 K, x1 = 0.09298 | – | 1724.2 ± 1.1
288.15 K, x1 = 0.09424 | 1075.05 ± 0.15 | –
288.15 K, x1 = 0.09657 | – | 1727.8 ± 1.1
288.15 K, x1 = 0.1007 | – | 1731.7 ± 1.1
288.15 K, x1 = 0.1021 | – | 1732.9 ± 1.1
288.15 K, x1 = 0.1045 | – | 1734.9 ± 1.1
288.15 K, x1 = 0.1091 | – | 1738.4 ± 1.1
288.15 K, x1 = 0.1208 | – | 1745.7 ± 1.1
288.15 K, x1 = 0.1237 | – | 1747.2 ± 1.1
288.15 K, x1 = 0.1281 | – | 1749.1 ± 1.1
288.15 K, x1 = 0.1302 | – | 1750 ± 1.1
288.15 K, x1 = 0.133 | – | 1751 ± 1.1
288.15 K, x1 = 0.1394 | – | 1753 ± 1.1
288.15 K, x1 = 0.1441 | – | 1754.2 ± 1.1
288.15 K, x1 = 0.1474 | – | 1754.8 ± 1.1
288.15 K, x1 = 0.1481 | 1094.39 ± 0.14 | –
288.15 K, x1 = 0.1578 | – | 1756.3 ± 1.1
288.15 K, x1 = 0.1678 | – | 1756.8 ± 1.1
288.15 K, x1 = 0.1774 | – | 1756.7 ± 1.1
288.15 K, x1 = 0.1904 | – | 1755.7 ± 1.1
288.15 K, x1 = 0.2006 | 1105.14 ± 0.14 | –
288.15 K, x1 = 0.2055 | – | 1753.5 ± 1.1
288.15 K, x1 = 0.2329 | – | 1748 ± 1.1
288.15 K, x1 = 0.2502 | 1111.33 ± 0.15 | –
288.15 K, x1 = 0.2559 | – | 1742.5 ± 1.1
288.15 K, x1 = 0.2967 | – | 1731.9 ± 1.2
288.15 K, x1 = 0.2988 | 1115.27 ± 0.15 | –
288.15 K, x1 = 0.3235 | – | 1725.1 ± 1.2
288.15 K, x1 = 0.3492 | 1118.09 ± 0.16 | –
288.15 K, x1 = 0.3699 | – | 1714 ± 1.2
288.15 K, x1 = 0.3925 | 1119.86 ± 0.17 | –
288.15 K, x1 = 0.4089 | – | 1705.2 ± 1.2
288.15 K, x1 = 0.4502 | 1121.62 ± 0.17 | –
288.15 K, x1 = 0.4877 | 1122.51 ± 0.18 | –
288.15 K, x1 = 0.5004 | 1122.77 ± 0.18 | –
288.15 K, x1 = 0.5029 | – | 1686.5 ± 1.2
288.15 K, x1 = 0.5739 | 1124.05 ± 0.2 | –
288.15 K, x1 = 0.58 | 1124.13 ± 0.2 | –
288.15 K, x1 = 0.6337 | – | 1667 ± 1.3
288.15 K, x1 = 0.6465 | 1124.97 ± 0.21 | –
288.15 K, x1 = 0.651 | 1125.02 ± 0.22 | –
288.15 K, x1 = 0.7008 | 1125.51 ± 0.23 | –
288.15 K, x1 = 0.745 | – | 1657.9 ± 1.3
288.15 K, x1 = 0.7471 | 1125.9 ± 0.24 | –
288.15 K, x1 = 0.7677 | 1126.06 ± 0.25 | –
288.15 K, x1 = 0.82 | 1126.42 ± 0.26 | –
288.15 K, x1 = 0.8623 | 1126.68 ± 0.28 | –
288.15 K, x1 = 0.8792 | 1126.78 ± 0.28 | –
288.15 K, x1 = 0.8795 | – | 1649.6 ± 1.4
288.15 K, x1 = 0.8975 | 1126.88 ± 0.29 | –
288.15 K, x1 = 0.9203 | 1127.01 ± 0.3 | –
288.15 K, x1 = 0.9514 | 1127.17 ± 0.31 | –
288.15 K, x1 = 0.9612 | – | 1645.9 ± 1.4
288.15 K, x1 = 0.9692 | 1127.27 ± 0.32 | –
288.15 K, x1 = 1 | 1127.43 ± 0.33 | 1643.9 ± 1.4
293.15 K, x1 = 0.000681 | – | 1485.6 ± 1.4
293.15 K, x1 = 0.002463 | – | 1494 ± 1.4
293.15 K, x1 = 0.005001 | – | 1505.7 ± 1.3
293.15 K, x1 = 0.007787 | – | 1518 ± 1.3
293.15 K, x1 = 0.01463 | – | 1546.1 ± 1.3
293.15 K, x1 = 0.02045 | – | 1567.9 ± 1.2
293.15 K, x1 = 0.0276 | – | 1592.1 ± 1.2
293.15 K, x1 = 0.03276 | – | 1608 ± 1.2
293.15 K, x1 = 0.0418 | – | 1632.7 ± 1.2
293.15 K, x1 = 0.04898 | – | 1649.9 ± 1.1
293.15 K, x1 = 0.05561 | – | 1664 ± 1.1
293.15 K, x1 = 0.06315 | – | 1678 ± 1.1
293.15 K, x1 = 0.0678 | – | 1685.8 ± 1.1
293.15 K, x1 = 0.0736 | – | 1694.6 ± 1.1
293.15 K, x1 = 0.08161 | – | 1705.1 ± 1.1
293.15 K, x1 = 0.08886 | – | 1713.2 ± 1.1
293.15 K, x1 = 0.09701 | – | 1721 ± 1.1
293.15 K, x1 = 0.1043 | – | 1726.7 ± 1.1
293.15 K, x1 = 0.1091 | – | 1730 ± 1.1
293.15 K, x1 = 0.1142 | – | 1733 ± 1.1
293.15 K, x1 = 0.12 | – | 1735.9 ± 1.1
293.15 K, x1 = 0.1325 | – | 1740.6 ± 1.1
293.15 K, x1 = 0.1374 | – | 1741.9 ± 1.1
293.15 K, x1 = 0.1445 | – | 1743.3 ± 1.1
